# Data: publication PMC5666424, “Marine-Derived 2-Aminoimidazolone Alkaloids. Leucettamine B-Related Polyandrocarpamines Inhibit Mammalian and Protozoan DYRK & CLK Kinases” (Marine Drugs, 2017)
# pIC50: −log10 of the molar value. Where two headings read alike, the source gives them in different places.
# Assays:
# Assay in all cases: Protein kinase assay
# TcCLK1 = TcCLK1 (Trypanosoma cruzi, UniProt Q4E3Z1); assay type: biochemical
# Experimental: (§1) The parasitic kinase genes (Supplementary Data, Table S3) were optimized for expression in E. coli, synthesized, and cloned in pGEX-6P-1 (GE Healthcare, Sigma-Aldrich, St. Quentin Fallavier, France) with the type II restriction enzymes BamHI and XhoI for glutathione S-transferase (GST) fusion at the N-terminus (GenScript). Plasmids were transformed into chemically competent E. coli BL21(DE3), which were grown overnight at 37 °C in 2 × YT medium containing 100 μg/mL ampicillin. These cultures were used to inoculate 1 L volumes of 2 × YT medium (containing 100 μg/mL ampicillin) in 5 L flasks. The cultures were allowed to grow at 37 °C before the temperature was decreased to 18 °C. At an optical density at 600 nm (OD600) of about 1.0, protein expression was induced overnight at 18 °C with 0.1 mM isopropyl β-D-1-thiogalactopyranoside (IPTG). The bacteria were harvested by centrifugation and were frozen at −20 °C.
# (§2) Cells were resuspended in a lysis buffer (PBS pH 7.4, 1% NP40, 1 mM DTT, 1 mM EDTA, 1 mM PMSF) in the presence of protease inhibitor cocktail (Roche), and lysozyme was added to 1 mg/mL and incubated 1 h at 4 °C with gentle agitation. Cells were then sonicated on ice before 6 mM MgCl2 and 25 U/mL benzonase (Novagen, Merck Millipore, Fontenay sous Bois, France) were added to degrade nucleic acids and decrease sample viscosity. After centrifugation at 4 °C, the soluble fraction was collected and proteins were bound to Glutathione sepharose 4B beads (GE Healthcare). Beads were washed three times with lysis buffer and once with modified buffer C (25 mM MOPS pH 7.0, 60 mM β-glycerophosphate, 15 mM p-nitrophenylphosphate, 15 mM EGTA, 15 mM MgCl2, 2 mM DTT, 1 mM sodium vanadate). Proteins were eluted with elution buffer (buffer C containing 30 mM reduced glutathione, 15% glycerol, and pH adjusted to 8.5).
# LdDYRK1B = LdDYRK1B (Leishmania donovani, UniProt E9BC59); assay type: biochemical; conditions: 15 μmol/L ATP
# Experimental: as §1, §2
# LmDYRK2 = LmDYRK2 (Leishmania major, UniProt Q4Q405); assay type: biochemical
# Experimental: as §1, §2
# TbCLK1 = TbCLK1 (Trypanosoma brucei brucei, UniProt Q382U0); assay type: biochemical
# Experimental: as §1, §2
# GlCLK = GlCLK (Giardia intestinalis, UniProt A8BBY0); assay type: biochemical
# Experimental: as §1, §2
# CpLAMMER = CpLAMMER (Cryptosporidium parvum, UniProt A3FQG5); assay type: biochemical
# Experimental: as §1, §2
# LdDYRK3 = LdDYRK3 (Leishmania donovani, UniProt E9BS59); assay type: biochemical
# Experimental: as §1, §2
# LdDYRK4 = LdDYRK4 (Leishmania donovani, UniProt A0A3Q8IC55); assay type: biochemical
# Experimental: as §1, §2
# PfGSK-3 = target: T1, PfGSK-3 (Plasmodium falciparum, UniProt O77344); assay type: biochemical
# T1 sequence (O77344 1-440): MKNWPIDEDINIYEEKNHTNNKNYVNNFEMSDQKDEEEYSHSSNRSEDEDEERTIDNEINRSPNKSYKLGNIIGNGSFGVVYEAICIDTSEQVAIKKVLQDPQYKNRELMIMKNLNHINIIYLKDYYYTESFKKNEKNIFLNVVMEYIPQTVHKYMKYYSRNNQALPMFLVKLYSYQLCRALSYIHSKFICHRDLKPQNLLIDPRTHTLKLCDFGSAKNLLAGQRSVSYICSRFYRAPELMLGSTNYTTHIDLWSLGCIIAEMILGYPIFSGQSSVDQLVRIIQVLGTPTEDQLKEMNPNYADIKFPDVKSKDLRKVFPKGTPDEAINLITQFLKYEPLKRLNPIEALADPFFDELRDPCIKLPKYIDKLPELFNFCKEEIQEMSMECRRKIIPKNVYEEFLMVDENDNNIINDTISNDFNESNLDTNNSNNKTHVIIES
# Experimental: as §1, §2
# LmCLK = LmCLK (Leishmania major, UniProt Q4QHY4); assay type: biochemical
# Experimental: as §1, §2
# CLK2 = CLK2 (Mus musculus, UniProt O35491); conditions: IC50 CLK2, 15 μmol/L ATP
# CDK2/cyclin A = target: T2, CDK2/cyclin A (Homo sapiens, UniProt P24941); assay type: biochemical
# T2 construct: made in house
# DYRK1A = DYRK1A (Homo sapiens, UniProt Q13627); assay type: biochemical; conditions: 15 μmol/L ATP
# GSK-3α/β = assay type: biochemical, porcine; conditions: 15 μmol/L ATP
# CK1δ/ε = assay type: biochemical, porcine; conditions: 15 μmol/L ATP
# Experimental: CK1δ/ε (porcine brain, native) and LmCK1 (leishmania major, recombinant, expressed in E. coli as HIS fusion proteins) was assayed as described for CDK1 but in buffer C and using 25 μM CKS peptide ([…]pSAYSITA), a CK1-specific substrate.
# DYRK1B = DYRK1B (Homo sapiens, UniProt Q9Y463); assay type: biochemical; conditions: 15 μmol/L ATP
# DYRK2 = target: T3, DYRK2 (Homo sapiens, UniProt Q92630); assay type: biochemical
# T3 sequence (Q92630 1-601): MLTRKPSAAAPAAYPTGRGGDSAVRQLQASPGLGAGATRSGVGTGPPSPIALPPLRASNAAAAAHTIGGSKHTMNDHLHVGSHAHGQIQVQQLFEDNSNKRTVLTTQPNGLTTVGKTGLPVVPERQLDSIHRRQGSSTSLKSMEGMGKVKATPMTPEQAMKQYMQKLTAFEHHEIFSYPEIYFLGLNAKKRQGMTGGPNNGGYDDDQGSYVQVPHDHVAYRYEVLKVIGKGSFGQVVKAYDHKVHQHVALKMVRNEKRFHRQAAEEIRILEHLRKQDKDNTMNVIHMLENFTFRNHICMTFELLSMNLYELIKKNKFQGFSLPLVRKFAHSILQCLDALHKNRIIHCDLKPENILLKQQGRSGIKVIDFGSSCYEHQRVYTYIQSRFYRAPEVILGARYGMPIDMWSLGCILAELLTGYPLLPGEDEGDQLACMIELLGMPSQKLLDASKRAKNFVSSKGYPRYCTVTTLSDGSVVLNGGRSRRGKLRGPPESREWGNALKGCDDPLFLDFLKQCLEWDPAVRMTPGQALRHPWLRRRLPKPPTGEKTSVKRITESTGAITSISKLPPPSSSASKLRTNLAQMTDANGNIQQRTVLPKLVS
# [1] = 15 μmol/L ATP, read-out: IC50 TcCLK1
# [2] = 15 μmol/L ATP, read-out: IC50 LmDYRK2
# [3] = 15 μmol/L ATP, read-out: IC50 TbCLK1
# [4] = 15 μmol/L ATP, read-out: IC50 GlCLK
# [5] = 15 μmol/L ATP, read-out: IC50 CpLAMMER
# [6] = 15 μmol/L ATP, read-out: IC50 LdDYRK3
# [7] = 15 μmol/L ATP, read-out: IC50 LdDYRK4
# [8] = 15 μmol/L ATP, read-out: IC50 PfGSK-3
# [9] = 15 μmol/L ATP, read-out: IC50 LmCLK
# [10] = 15 μmol/L ATP, read-out: IC50 CDK2/cyclin A
# [11] = 15 μmol/L ATP, read-out: IC50 DYRK2
# Sequence of LdDYRK1B (E9BC59 1-745): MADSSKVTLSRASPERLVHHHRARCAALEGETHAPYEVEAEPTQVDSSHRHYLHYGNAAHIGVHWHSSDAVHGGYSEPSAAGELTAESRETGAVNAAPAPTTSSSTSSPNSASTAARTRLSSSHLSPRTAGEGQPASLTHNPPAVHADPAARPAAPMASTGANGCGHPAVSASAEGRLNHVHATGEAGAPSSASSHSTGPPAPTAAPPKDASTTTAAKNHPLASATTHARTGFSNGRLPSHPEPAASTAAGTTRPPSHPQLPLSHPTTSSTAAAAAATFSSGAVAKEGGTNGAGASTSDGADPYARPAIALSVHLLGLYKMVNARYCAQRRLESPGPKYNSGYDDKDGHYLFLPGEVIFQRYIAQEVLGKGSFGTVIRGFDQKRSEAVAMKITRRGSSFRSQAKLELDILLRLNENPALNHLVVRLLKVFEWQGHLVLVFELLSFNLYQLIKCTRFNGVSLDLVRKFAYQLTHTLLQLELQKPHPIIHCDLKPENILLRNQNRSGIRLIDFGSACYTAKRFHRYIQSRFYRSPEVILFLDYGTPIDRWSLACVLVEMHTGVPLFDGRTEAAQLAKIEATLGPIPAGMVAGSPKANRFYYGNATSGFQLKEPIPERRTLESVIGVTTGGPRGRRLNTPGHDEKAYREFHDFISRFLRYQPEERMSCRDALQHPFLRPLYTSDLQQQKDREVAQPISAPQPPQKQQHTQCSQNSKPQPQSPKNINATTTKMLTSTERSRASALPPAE
# Sequence of LdDYRK4 (A0A3Q8IC55 entry or part of it): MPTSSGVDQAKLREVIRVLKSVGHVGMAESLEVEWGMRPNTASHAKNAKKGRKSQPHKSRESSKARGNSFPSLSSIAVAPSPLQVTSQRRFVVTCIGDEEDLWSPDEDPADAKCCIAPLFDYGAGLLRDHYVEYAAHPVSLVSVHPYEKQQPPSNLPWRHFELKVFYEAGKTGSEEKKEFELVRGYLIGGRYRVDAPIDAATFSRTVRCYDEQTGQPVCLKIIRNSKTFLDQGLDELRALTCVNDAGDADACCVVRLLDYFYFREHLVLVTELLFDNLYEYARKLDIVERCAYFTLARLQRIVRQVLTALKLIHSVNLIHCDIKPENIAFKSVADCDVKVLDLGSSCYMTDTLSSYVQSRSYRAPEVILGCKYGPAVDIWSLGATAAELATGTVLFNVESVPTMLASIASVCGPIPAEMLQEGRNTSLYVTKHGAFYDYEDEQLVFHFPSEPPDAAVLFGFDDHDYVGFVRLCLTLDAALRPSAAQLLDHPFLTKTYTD
# Sequence of LdDYRK3 (E9BS59 entry or part of it): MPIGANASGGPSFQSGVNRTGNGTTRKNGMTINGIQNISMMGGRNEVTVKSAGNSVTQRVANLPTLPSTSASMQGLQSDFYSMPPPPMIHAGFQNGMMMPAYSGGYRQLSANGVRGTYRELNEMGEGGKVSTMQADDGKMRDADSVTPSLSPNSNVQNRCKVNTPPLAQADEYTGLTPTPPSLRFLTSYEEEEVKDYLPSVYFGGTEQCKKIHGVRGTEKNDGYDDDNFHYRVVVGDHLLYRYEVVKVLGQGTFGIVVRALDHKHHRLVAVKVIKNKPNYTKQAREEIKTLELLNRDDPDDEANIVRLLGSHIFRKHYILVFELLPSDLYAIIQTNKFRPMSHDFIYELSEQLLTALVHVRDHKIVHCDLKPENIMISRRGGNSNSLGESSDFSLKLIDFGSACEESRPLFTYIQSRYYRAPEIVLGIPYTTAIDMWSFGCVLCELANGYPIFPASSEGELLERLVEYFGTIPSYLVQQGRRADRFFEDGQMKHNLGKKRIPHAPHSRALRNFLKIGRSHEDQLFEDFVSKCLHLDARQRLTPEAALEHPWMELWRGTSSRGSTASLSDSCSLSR
# Sequence of GlCLK (A8BBY0 entry or part of it): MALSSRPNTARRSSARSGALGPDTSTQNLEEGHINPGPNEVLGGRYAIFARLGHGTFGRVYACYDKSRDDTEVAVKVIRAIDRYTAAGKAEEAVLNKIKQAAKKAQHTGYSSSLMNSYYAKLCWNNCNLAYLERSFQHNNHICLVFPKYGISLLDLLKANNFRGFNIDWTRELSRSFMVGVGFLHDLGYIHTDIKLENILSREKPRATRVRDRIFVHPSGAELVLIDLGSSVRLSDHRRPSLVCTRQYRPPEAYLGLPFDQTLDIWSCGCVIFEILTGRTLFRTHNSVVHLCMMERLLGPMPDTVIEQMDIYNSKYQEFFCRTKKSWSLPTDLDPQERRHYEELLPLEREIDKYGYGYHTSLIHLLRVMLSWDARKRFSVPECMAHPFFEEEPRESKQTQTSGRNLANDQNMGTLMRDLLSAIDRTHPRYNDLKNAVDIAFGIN
# Sequence of LmDYRK2 (Q4Q405 entry or part of it): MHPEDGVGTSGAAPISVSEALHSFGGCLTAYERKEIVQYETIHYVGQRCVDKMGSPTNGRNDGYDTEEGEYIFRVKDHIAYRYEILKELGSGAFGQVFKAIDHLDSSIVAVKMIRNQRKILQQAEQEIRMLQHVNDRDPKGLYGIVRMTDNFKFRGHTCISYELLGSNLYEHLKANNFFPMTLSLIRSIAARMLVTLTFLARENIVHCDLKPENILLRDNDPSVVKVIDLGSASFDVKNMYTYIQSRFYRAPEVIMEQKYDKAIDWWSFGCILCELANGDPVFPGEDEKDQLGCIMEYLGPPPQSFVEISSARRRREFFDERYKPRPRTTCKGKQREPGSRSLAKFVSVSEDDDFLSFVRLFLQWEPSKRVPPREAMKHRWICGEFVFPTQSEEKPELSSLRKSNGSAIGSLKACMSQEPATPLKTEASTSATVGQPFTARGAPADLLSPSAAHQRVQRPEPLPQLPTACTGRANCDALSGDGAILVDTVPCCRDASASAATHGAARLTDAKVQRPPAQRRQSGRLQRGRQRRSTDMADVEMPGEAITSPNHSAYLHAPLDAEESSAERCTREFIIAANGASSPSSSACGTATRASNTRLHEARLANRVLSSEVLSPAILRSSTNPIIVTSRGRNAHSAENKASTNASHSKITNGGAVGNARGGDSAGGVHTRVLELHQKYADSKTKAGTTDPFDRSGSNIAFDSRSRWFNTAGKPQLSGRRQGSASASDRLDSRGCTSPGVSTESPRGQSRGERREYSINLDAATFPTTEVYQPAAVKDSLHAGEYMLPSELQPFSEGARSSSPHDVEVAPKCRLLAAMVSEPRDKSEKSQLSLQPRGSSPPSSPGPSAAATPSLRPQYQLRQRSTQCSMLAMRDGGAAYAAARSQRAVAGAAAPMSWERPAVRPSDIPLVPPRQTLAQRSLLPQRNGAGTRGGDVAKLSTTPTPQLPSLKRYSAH
# Sequence of DYRK1B (Q9Y463 whole entry): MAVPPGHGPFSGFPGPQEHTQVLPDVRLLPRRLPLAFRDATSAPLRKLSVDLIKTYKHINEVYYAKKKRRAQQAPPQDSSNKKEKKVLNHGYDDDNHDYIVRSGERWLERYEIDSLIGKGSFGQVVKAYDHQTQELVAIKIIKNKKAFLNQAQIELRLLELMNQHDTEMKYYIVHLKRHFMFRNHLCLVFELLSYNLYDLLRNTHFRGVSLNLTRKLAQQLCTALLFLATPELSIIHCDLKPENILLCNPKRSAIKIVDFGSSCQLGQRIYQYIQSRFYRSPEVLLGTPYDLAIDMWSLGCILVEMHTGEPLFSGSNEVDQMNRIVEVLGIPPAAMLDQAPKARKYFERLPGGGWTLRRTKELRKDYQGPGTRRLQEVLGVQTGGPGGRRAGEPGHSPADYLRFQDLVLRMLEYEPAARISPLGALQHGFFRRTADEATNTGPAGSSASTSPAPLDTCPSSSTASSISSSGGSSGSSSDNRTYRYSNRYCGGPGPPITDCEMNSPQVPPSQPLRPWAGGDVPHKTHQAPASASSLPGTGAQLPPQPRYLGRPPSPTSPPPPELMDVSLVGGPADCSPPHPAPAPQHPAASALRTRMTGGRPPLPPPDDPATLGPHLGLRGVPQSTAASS
# Sequence of CpLAMMER (A3FQG5 entry or part of it): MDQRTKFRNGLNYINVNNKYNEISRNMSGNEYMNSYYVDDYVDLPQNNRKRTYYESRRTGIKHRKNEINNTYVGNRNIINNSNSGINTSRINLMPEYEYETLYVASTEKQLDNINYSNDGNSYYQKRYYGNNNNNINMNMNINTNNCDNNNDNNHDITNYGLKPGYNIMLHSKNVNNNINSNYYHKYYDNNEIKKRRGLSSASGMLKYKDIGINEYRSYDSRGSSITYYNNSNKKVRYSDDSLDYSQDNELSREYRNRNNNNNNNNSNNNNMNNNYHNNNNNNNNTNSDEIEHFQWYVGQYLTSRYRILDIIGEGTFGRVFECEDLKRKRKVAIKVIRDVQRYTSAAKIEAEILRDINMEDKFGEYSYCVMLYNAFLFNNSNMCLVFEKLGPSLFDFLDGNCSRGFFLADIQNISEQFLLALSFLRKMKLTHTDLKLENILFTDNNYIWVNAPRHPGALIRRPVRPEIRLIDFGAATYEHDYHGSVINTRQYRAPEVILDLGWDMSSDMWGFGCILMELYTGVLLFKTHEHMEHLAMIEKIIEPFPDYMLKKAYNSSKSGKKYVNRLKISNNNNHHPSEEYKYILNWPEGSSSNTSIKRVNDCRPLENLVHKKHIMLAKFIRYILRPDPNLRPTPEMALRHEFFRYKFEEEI
# Sequence of TbCLK1 (Q382U0 entry or part of it): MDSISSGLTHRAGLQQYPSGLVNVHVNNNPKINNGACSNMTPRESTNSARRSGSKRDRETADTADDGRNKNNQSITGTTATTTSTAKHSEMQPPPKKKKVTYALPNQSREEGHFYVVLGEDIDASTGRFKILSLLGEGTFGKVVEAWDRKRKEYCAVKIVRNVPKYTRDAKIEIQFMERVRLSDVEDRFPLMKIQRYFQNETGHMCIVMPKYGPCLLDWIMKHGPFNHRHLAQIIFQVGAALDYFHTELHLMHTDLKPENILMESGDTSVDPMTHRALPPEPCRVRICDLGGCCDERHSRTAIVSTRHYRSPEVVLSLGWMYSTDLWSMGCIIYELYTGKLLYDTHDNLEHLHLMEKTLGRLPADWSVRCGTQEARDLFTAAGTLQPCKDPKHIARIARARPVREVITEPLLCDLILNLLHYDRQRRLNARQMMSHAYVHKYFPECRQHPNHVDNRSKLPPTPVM
pIC50 (TcCLK1; [1]),pIC50 (LdDYRK1B),pIC50 (LmDYRK2; [2]),pIC50 (TbCLK1; [3]),pIC50 (GlCLK; [4]),pIC50 (CpLAMMER; [5]),pIC50 (LdDYRK3; [6]),pIC50 (LdDYRK4; [7]),pIC50 (PfGSK-3; [8]),pIC50 (LmCLK; [9]),pIC50 (CLK2),pIC50 (CDK2/cyclin A; [10]),pIC50 (DYRK1A),pIC50 (GSK-3α/β),pIC50 (CK1δ/ε),pIC50 (DYRK1B),pIC50 (DYRK2; [11]),SMILES,other results
< 5.00,< 5.00,< 5.00,< 5.00,< 5.00,< 5.00,< 5.00,< 5.00,< 5.00,< 5.00,< 5.00,< 5.00,< 5.00,< 5.00,< 5.00,< 5.00,< 5.00,CN1C(=N)N(C)/C(=C\c2c[nH]c3ccccc23)C1=O [Aplysinopsine],
< 5.00,< 5.00,< 5.00,< 5.00,< 5.00,< 5.00,5.10,< 5.00,< 5.00,< 5.00,5.21,< 5.00,5.28,< 5.00,< 5.00,5.25,5.21,CN1C(=N)N=C(Nc2nc(Cc3ccc4c(c3)OCO4)cn2C)C1=O [Clathridimine],
< 5.00,< 5.00,< 5.00,< 5.00,< 5.00,< 5.00,< 5.00,< 5.00,< 5.00,< 5.00,5.22,< 5.00,5.11,< 5.00,< 5.00,< 5.00,5.15,CN1C(=O)N=C(Nc2nc(Cc3ccc4c(c3)OCO4)cn2C)C1=O [Clathridine],
< 5.00,< 5.00,< 5.00,< 5.00,< 5.00,< 5.00,< 5.00,< 5.00,< 5.00,< 5.00,< 5.00,< 5.00,< 5.00,< 5.00,< 5.00,< 5.00,< 5.00,NC1=N/C(=C\CCNC(=O)c2cc(Br)c(Br)[nH]2)C(=O)N1 [Dispacamide],
6.29,7.38,6.42,6.28,7.92,7.80,7.68,< 5.00,8.39,6.40,8.39,7.96,8.48,8.49,8.43,8.49,8.51,"NC1=NC(=O)/C(=C2\CCNC(=O)c3[nH]c(Br)cc32)N1 [Hymenialdisine, reference compound]",
< 5.00,< 5.00,< 5.00,< 5.00,5.66,6.70,< 5.00,< 5.00,< 5.00,< 5.00,5.31,< 5.00,6.33,< 5.00,< 5.00,5.92,6.12,NC1=N/C(=C\c2ccc(O)c(O)c2)C(=O)N1 [Polyandrocarpamine B],
5.96,6.30,5.05,6.15,6.92,6.89,6.52,< 5.00,7.42,5.28,8.14,7.17,6.11,7.36,7.51,8.24,7.68,NC1=NC(=O)/C(=C2\CCNC(=O)c3[nH]cc(Br)c32)N1 [Spongiacidin B],

SMILES,pIC50 (TcCLK1; [1]),pIC50 (LdDYRK1B),pIC50 (LmDYRK2; [2]),pIC50 (TbCLK1; [3]),pIC50 (GlCLK; [4]),pIC50 (CpLAMMER; [5]),pIC50 (LdDYRK3; [6]),pIC50 (LdDYRK4; [7]),pIC50 (PfGSK-3; [8]),pIC50 (LmCLK; [9]),pIC50 (CLK2),pIC50 (CDK2/cyclin A; [10]),pIC50 (DYRK1A),pIC50 (GSK-3α/β),pIC50 (CK1δ/ε),pIC50 (DYRK1B),pIC50 (DYRK2; [11]),other results
CN1C(=O)/C(=C/c2ccc3c(c2)OCO3)N=C1N [Leucettamine B],,5.16,,,,,,,,,6.04,,,5.14,< 5.00,,,"pIC50 (TcCLK1): < 5.00; pIC50 (LmDYRK2): 5.38; pIC50 (TbCLK1): < 5.00; pIC50 (GlCLK): 5.51; pIC50 (CpLAMMER): 5.74; pIC50 (LdDYRK3): < 5.00; pIC50 (LdDYRK4): < 5.00; pIC50 (PfGSK-3): < 5.00; pIC50 (LmCLK): < 5.00; pIC50 (CDK2/cyclin A): < 5.00; pIC50 (DYRK2; IC50 DYRK2, 15 μmol/L ATP): 6.31"
COc1cc(/C=C2\N=C(N)NC2=O)ccc1O [Polyandrocarpamine A],< 5.00,5.96,5.23,< 5.00,6.02,6.77,< 5.00,< 5.00,< 5.00,< 5.00,5.92,< 5.00,6.57,,5.48,6.37,6.38,
